In patent publication US8604029B2, “2-[(2-substituted)-indolizin-3-yl]-2-oxo-acetamide derivatives as antifungal agents” (F2G Ltd British Body Corporate, priority 2006, dated 2013):
Values after ≈ are worked out from the molar mass of the structure shown.

Columns and labels:
Experiment in all cases: MIC measurement, YAG medium
Assay type in all cases: cell-based
[1] = tested on: Aspergillus niger; details: MIC banded into grades; for MIC: Aspergillus niger
Outline: (§1)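 Spores from 5-day Sabouraud agar cultures were diluted in YAG medium (1% glucose, 1% ammonium chloride, 0.5% yeast extract) to a final inoculum of 1-2×10^4 cfu/mL, with drug at 50-0.05 mg/L. Plates were incubated 24 h at 35° C and read as OD 485 nm. MIC is the lowest concentration giving >70% inhibition versus drug-free control, in mg/L.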

[2] = tested on: Aspergillus fumigatus AF210; details: MIC banded into grades; for MIC: Aspergillus fumigatus, strain AF210, read-out: MIC A. fumigatus 210
Outline: as §1

[3] = tested on: Aspergillus terreus AT49; details: MIC banded into grades; for MIC: Aspergillus terreus, strain AT49, read-out: MIC A. terreus 49
Outline: as §1

[4] = tested on: Aspergillus fumigatus; details: YAG medium, MIC banded into grades, strain AF293; for MIC: Aspergillus fumigatus, read-out: MIC A. fumigatus
Outline: as §1

[5] = tested on: Aspergillus terreus; details: MIC banded into grades, strain not named in head (AT4); for MIC: Aspergillus terreus
Outline: as §1

[6] = tested on: Aspergillus flavus; details: MIC banded into grades, lowest concentration inhibiting growth by >70%; for MIC: Aspergillus flavus
Outline: as §1

Compound | MIC [1] | MIC [2] | MIC [3] | MIC [4] | MIC [5] | MIC [6] | MIC A. niger [1] | MIC A. fumigatus 210 ([2]; strain AF210) | MIC A. terreus 49 ([3]; strain AT49) | MIC A. fumigatus [4] | MIC A. terreus [5] | MIC A. flavus [6]
O=C(Nc1ccc(N2CCN(Cc3cccs3)CC2)cc1)C(=O)c1c(-c2ccccc2)cc2ccccn12 [Example 33, 2-Oxo-2-(2-phenylindolizin-3-yl)-N-[4-(4-thiophen-2-ylmethylpiperazin-1-yl)phenyl] acetamide] | < 1 µg/mL | < 1 µg/mL | < 1 µg/mL | < 1 µg/mL | < 1 µg/mL | < 1 µg/mL | – | – | – | – | – | –
O=C(Nc1ccc(N2CCN(Cc3ccco3)CC2)nc1)C(=O)c1c(-c2ccccc2)cc2ccccn12 [Example 34] | < 1 µg/mL | < 1 µg/mL | < 1 µg/mL | < 1 µg/mL | < 1 µg/mL | < 1 µg/mL | – | – | – | – | – | –
Cc1ccccc1-c1cc2ccccn2c1C(=O)C(=O)Nc1ccc(N2CCN(Cc3ccco3)CC2)cn1 [Example 35, N-[5-(2-Furan-2-yl-methyl-piperazin-yl)-peridin-2-yl]-2-oxo-2-(2-o-tolyl-indolizin-3-yl)-acetamide] | – | – | – | – | – | – | 3 (A grade of 3 represents an MIC of less than 1 mg/L) | 3 (A grade of 3 represents an MIC of less than 1 mg/L) | 3 (A grade of 3 represents an MIC of less than 1 mg/L) | 3 (A grade of 3 represents an MIC of less than 1 mg/L) | 3 (A grade of 3 represents an MIC of less than 1 mg/L) | 3 (A grade of 3 represents an MIC of less than 1 mg/L)
O=C(Nc1ccc(N2CCN(CCc3ccccn3)CC2)cc1)C(=O)c1c(-c2ccccc2)cc2ccccn12 [Example 36, 2-Oxo-2-(2-phenyl-indolizin-3-yl)-N-{4-[4-(2-pyridin-yl-ethyl)-perazin-1-yl]-phenyl}-acetamide] | < 1 µg/mL | < 1 µg/mL | < 1 µg/mL | < 1 µg/mL | < 1 µg/mL | < 1 µg/mL | – | – | – | – | – | –

The next lines start with results.

MIC [1] | MIC [2] | MIC [3] | MIC [4] | MIC [5] | MIC [6] | Compound | MIC A. niger [1] | MIC A. fumigatus 210 ([2]; strain AF210) | MIC A. terreus 49 ([3]; strain AT49) | MIC A. fumigatus [4] | MIC A. terreus [5] | MIC A. flavus [6]
< 1 µg/mL | < 1 µg/mL | < 1 µg/mL | < 1 µg/mL | < 1 µg/mL | < 1 µg/mL | O=C(Nc1ccc(N2CCN(c3ccccn3)CC2)cc1)C(=O)c1c(-c2ccccc2)cc2ccccn12 [Example 41, 2-Oxo-2-(2-phenyl-indolizin-3yl)-N-[4-(4-pyridin-2-yl-piperizin-1-yl)-phenyl]-acetamide] | – | – | – | – | – | –
< 1 µg/mL | < 1 µg/mL | < 1 µg/mL | < 1 µg/mL | < 1 µg/mL | < 1 µg/mL | O=C(Nc1ccc(N2CCN(c3ccccn3)CC2)cc1)C(=O)c1c(-c2ccccc2)cc2ccc(F)cn12 [Example 42, 2-(6-Fluoro-2-phenyl-indolizin-3-yl)-2-oxo-N-[4-(4-pyridin-2-yl-piperazin-1-yl)phenyl] acetamide] | – | – | – | – | – | –
1 to 10 µg/mL (≈ 1.88 to 18.8 µM) | < 1 µg/mL | < 1 µg/mL | < 1 µg/mL | < 1 µg/mL | < 1 µg/mL | Cc1cc(N2CCN(c3ccc(NC(=O)C(=O)c4c(-c5ccccc5)cc5ccccn45)cc3)CC2)nc(C)n1 [Example 45] | – | – | – | – | – | –
< 1 µg/mL | < 1 µg/mL | < 1 µg/mL | < 1 µg/mL | < 1 µg/mL | < 1 µg/mL | Cc1cc(C)nc(N(C)CCCc2ccc(NC(=O)C(=O)c3c(-c4ccccc4)cc4ccccn34)cc2)c1 [Example 70, N-(4-{3-[(4,6-Dimethyl-pyridin-2-yl)-methyl-amino]-propyl}-phenyl)-2-oxo-2-(2-phenyl-indolizin-3-yl)-acetamide] | – | – | – | – | – | –
< 1 µg/mL | < 1 µg/mL | < 1 µg/mL | < 1 µg/mL | < 1 µg/mL | < 1 µg/mL | O=C(Nc1ccc(N2CCN(c3ccc(CN4CCOCC4)cn3)CC2)cc1)C(=O)c1c(-c2ccccc2)cc2ccccn12 [Example 77, N-{4-[4-(5-morpholin-4-yl-methyl-pyridin-2-yl)-piperazin-1-yl]-phenyl}-2-oxo-2-(2-phenyl-indolizin-3-yl)-acetamide] | – | – | – | – | – | –
